Source: ChEMBL document CHEMBL1142028, “(E)-Phenyl- and -heteroaryl-substituted O-benzoyl-(or acyl)oximes as lipoprotein-associated phospholipase A2 inhibitors” (Bioorg Med Chem Lett, 2005)

Molecular target: T1, Platelet-activating factor acetylhydrolase (Homo sapiens, UniProt Q13093)
T1 sequence (Q13093 whole entry): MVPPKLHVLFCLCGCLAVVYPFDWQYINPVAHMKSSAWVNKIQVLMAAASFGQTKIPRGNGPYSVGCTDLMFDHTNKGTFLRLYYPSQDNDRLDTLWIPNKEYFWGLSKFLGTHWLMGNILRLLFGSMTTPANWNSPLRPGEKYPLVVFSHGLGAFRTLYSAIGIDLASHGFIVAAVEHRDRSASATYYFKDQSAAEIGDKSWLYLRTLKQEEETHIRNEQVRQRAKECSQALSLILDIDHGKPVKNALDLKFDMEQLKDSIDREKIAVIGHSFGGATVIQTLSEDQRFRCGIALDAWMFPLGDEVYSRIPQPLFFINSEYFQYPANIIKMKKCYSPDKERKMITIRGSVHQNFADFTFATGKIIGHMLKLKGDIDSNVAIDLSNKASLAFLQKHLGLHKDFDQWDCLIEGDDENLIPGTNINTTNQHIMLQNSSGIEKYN
Test: In vitro inhibitory activity against human lipoprotein-associated phospholipase A2; NA - not active; call rule not given here

IC50: Not Active
SMILES: O=C(ON=C(c1ccccc1)c1ccccc1)c1ccccc1 [(DIPHENYLMETHYLIDENE)AMINO BENZOATE]
